US8895753B2, “S1P receptor modulating agent” (Meiji Seika Pharma Co., Ltd., priority 2011, dated 2014)
“And” between values parts separate entries of the source, which are not always exact repeats. Identical values can stand only once.

How the values were obtained:
Human S1P1 receptor [1] = biological target: T1, Human S1P1 receptor (Homo sapiens, UniProt P21453); experiment: Agonist activity at an S1P1 receptor (reporter assay, EDG1-bla/U2OS cells); assay type: cell-based; set-up: host or cells: U2OS (EDG1-bla/U2OS); conditions: S1P maximum response = 100%
Description: Human S1P1 receptor gene recombinant EDG1-bla/U2OS cells (Life Technologies Japan Ltd.) were plated in a 96-well half-sized clear bottom black plate at a density of 10000 cells/32 μL/well, and then the plate was incubated at 37° C. in a 5% CO2 incubator for 48 hours. A culture medium containing each test compound prepared as a 5× concentrate was added at 8 μL/well, and the plate was incubated at 37° C. in a 5% CO2 incubator for 5 hours. The substrate (LiveBLAzer™-FRET B/G substrate (CCF4-AM), Life Technologies Japan Ltd.) prepared as a 6× concentrate was added at 8 μL into each well, and the plate was incubated at room temperature for 2 hours in the dark. The fluorescence intensity of each well was detected using a bottom-reading fluorescence microplate reader (EnVision: ParkinElmer) at one excitation wavelength and 2 wavelengths for fluorescence emission (Ex409 nm, Em460 nm, Em530 nm). The intensity ratio of fluorescence at 460 nm/530 nm was calculated for each well. The maximum response ratio confirmed from the dose response of SIP was expressed as 100%. The concentration of a test compound required to stimulate 50% of its maximal activation was computed as EC50 (nM).

Human S1P1 receptor [2] = biological target: T1, Human S1P1 receptor; experiment: Agonist activity at an S1P1 receptor ([35S]-GTPγS exchange reaction, membrane fractions); assay type: biochemical; conditions: read-out: EC50, agonist activity at S1P1 receptor (GTP exchange reaction)
Description: (§1) By using membrane fractions prepared from a human S1P1 receptor expressing cells (Multispan Ltd.), the agonist activity of each test compound was measured by [^35S]-GTPγS exchange reaction in accordance with a standard procedure (Methods in Molecular Biology, Vol. 552, p 143-151 (2009)), and EC50 (nM) of each test compound was computed.

Human S1P4 receptor = biological target: T2, Human S1P4 receptor (Homo sapiens, UniProt O95977); experiment: Agonist activity at an S1P4 receptor (calcium influx); assay type: cell-based; conditions: at 1000 nM; read-out: activity at S1P4 receptor (elevation of intracellular calcium)
T2 sequence (O95977 1-384): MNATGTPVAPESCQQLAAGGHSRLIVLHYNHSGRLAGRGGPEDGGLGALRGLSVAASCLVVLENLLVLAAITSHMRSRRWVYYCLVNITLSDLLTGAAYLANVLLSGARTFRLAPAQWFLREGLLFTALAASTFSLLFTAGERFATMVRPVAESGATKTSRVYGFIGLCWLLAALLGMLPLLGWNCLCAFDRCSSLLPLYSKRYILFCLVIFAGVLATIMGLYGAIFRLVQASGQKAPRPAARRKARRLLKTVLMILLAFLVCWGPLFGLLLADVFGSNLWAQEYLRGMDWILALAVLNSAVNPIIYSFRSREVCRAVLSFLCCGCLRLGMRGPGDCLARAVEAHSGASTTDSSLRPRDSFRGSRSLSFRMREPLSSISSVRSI
Description: By using Human S1P4 receptor expressing cells (Multispan Inc. CG1052-1), the elevation of intracellular calcium concentration via agonist activity by the addition of 1000 nM was measured by Fret method (fluorescence resonance energy transfer).

Human S1P3 receptor = Human S1P3 receptor (Homo sapiens, UniProt Q99500); experiment: Agonist activity at an S1P3 receptor ([35S]-GTPγS exchange reaction at 1000 nM); assay type: biochemical; conditions: read-out: percent of the maximal agonist activity at S1P3 receptor
Description: as §1
By using membrane fractions prepared from Human S1P3 receptor expressing cells (Multispan Inc.), the agonist activity of the compound in the present invention was measured by a [^35S]-GTPγS exchange reaction at 1000 nM by the similar method of the Experimental Example 2.

Human S1P3 receptor, sequence (Q99500 whole entry): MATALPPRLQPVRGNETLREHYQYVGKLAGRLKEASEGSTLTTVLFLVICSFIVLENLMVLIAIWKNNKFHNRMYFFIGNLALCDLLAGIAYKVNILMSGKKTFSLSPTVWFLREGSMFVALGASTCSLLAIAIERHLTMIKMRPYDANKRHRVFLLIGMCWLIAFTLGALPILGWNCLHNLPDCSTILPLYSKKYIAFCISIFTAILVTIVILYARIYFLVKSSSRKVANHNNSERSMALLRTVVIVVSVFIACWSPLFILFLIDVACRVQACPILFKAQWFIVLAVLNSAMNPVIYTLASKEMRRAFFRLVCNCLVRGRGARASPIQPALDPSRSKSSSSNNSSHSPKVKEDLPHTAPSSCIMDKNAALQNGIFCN
T1 sequence (P21453 whole entry): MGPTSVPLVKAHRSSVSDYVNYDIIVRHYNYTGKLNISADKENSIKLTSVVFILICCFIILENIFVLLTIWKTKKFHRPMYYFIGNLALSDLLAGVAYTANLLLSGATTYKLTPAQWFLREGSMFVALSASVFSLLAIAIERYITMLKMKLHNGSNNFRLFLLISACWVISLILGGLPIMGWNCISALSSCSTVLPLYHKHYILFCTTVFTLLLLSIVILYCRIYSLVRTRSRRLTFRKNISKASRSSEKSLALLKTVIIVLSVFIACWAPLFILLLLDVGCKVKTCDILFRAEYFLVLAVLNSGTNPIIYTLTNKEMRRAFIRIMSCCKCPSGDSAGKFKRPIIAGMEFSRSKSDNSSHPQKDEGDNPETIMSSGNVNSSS

| SMILES | EC50 (Human S1P1 receptor [1]) | EC50 (Human S1P1 receptor [2]) [nM] | activation at 1 µM (Human S1P4 receptor) [%] | Emax at 1 µM (Human S1P3 receptor) [%] |
| --- | --- | --- | --- | --- |
| CC(C)Oc1ccc(-c2cnc(-c3ccc(CN4CC(c5nn[nH]n5)C4)cc3)s2)cc1 [Example 4, 2-(4-((3-(2H-tetrazol-5-yl)azetidin-1-yl)methyl)phenyl)-5-(4-isopropoxyphenyl)thiazole] | ≤ 100 nM and 87.1 nM | – | – | – |
| CC(C)Oc1ccc(-c2cnc(-c3ccc(CN4CC(C(=O)O)C4)cc3F)s2)cc1Cl [Example 11, 1-(4-(5-(3-chloro-4-isopropoxyphenyl)thiazol-2-yl)-3-fluorobenzyl)azetidine-3-carboxylic acid] | ≤ 1 nM and 0.076 nM | ≤ 10 | < 20 | 20 to 50 |
| CCCCc1cc(CN2CC(C(=O)O)C2)ccc1-c1ncc(-c2ccc(OC(C)C)cc2)s1 [Example 13, 1-(3-butyl-4-(5-(4-isopropoxyphenyl)thiazol-2-yl)benzyl)azetidine-3-carboxylic acid] | ≤ 100 nM | – | – | – |
| CC(C)Oc1ccc(-c2cnc(-c3ccc(CN4CC(C(=O)O)C4)cc3C3CC3)s2)cc1 [Example 14, 1-(3-cyclopropyl-4-(5-(4-isopropoxyphenyl)thiazol-2-yl)benzyl)azetidine-3-carboxylic acid] | ≤ 10 nM | – | – | – |
| CCc1cc(CN2CC(C(=O)O)C2)ccc1-c1ncc(-c2ccc(OC(C)C)cc2)s1 [Example 15, 1-(3-ethyl-4-(5-(4-isopropoxyphenyl)thiazol-2-yl)benzyl)azetidine-3-carboxylic acid] | ≤ 10 nM | – | < 20 | < 20 |
| CC(C)Oc1ccc(-c2cnc(-c3ccc(CN4CC(C(=O)O)C4)cc3F)s2)cc1 [Example 17, 1-(3-fluoro-4-(5-(4-isopropoxyphenyl)thiazol-2-yl)benzyl)azetidine-3-carboxylic acid] | ≤ 10 nM | ≤ 50 | < 20 | – |
| COc1cc(CN2CC(C(=O)O)C2)ccc1-c1ncc(-c2ccc(OC(C)C)cc2)s1 [Example 18, 1-(4-(5-(4-isopropoxyphenyl)thiazol-2-yl)-3-methoxybenzyl)azetidine-3-carboxylic acid] | ≤ 500 nM | – | – | – |
| CCc1cc(-c2ncc(-c3ccc(OC(C)C)cc3)s2)ccc1CN1CC(C(=O)O)C1 [Example 20, 1-(2-ethyl-4-(5-(4-isopropoxyphenyl)thiazol-2-yl)benzyl)azetidine-3-carboxylic acid] | ≤ 100 nM | – | – | – |
| CC(C)Oc1ccc(-c2cnc(-c3ccc(CN4CC(C(=O)O)C4)c(C4CC4)c3)s2)cc1 [Example 24, 1-(2-cyclopropyl-4-(5-(4-isopropoxyphenyl)thiazol-2-yl)benzyl)azetidine-3-carboxylic acid] | ≤ 100 nM | – | – | – |
| COc1cc(-c2ncc(-c3ccc(OC(C)C)cc3)s2)ccc1CN1CC(C(=O)O)C1 [Example 26, 1-(4-(5-(4-isopropoxyphenyl)thiazol-2-yl)-2-methoxybenzyl)azetidine-3-carboxylic acid] | ≤ 100 nM | – | – | – |
| CC(C)Oc1ccc(-c2cnc(-c3ccc(CN4CC(C(=O)O)C4)c(C(F)(F)F)c3)s2)cc1 [Example 27, 1-(4-(5-(4-isopropoxyphenyl)thiazol-2-yl)-2-(trifluoromethyl)benzyl)azetidine-3-carboxylic acid] | ≤ 100 nM | – | – | – |
| CCCCOc1ccc(-c2cnc(-c3ccc(CN4CC(C(=O)O)C4)cc3)s2)cc1 [Example 39, 1-(4-(5-(4-butoxyphenyl)thiazol-2-yl)benzyl)azetidine-3-carboxylic acid] | ≤ 100 nM | – | – | – |

The next lines start with the values.

| EC50 (Human S1P1 receptor [1]) | EC50 (Human S1P1 receptor [2]) [nM] | activation at 1 µM (Human S1P4 receptor) [%] | Emax at 1 µM (Human S1P3 receptor) [%] | SMILES |
| --- | --- | --- | --- | --- |
| ≤ 500 nM | – | – | – | CC(C)Oc1ccc(-c2cnc(-c3ccc(CN4CCC(C(=O)O)CC4)cc3)s2)cc1 [Example 5, 1-(4-(5-(4-isopropoxyphenyl)thiazol-2-yl)benzyl)piperidine-4-carboxylic acid] |
| ≤ 100 nM and 72.6 nM | – | – | – | CC(C)Oc1cccc(-c2cnc(-c3ccc(CN4CC(C(=O)O)C4)cc3)s2)c1 [Example 7, 1-(4-(5-(3-isopropoxyphenyl)thiazol-2-yl)benzyl)azetidine-3-carboxylic acid] |
| ≤ 10 nM and 6.58 nM | ≤ 100 | < 20 | – | CC(C)Oc1ccc(-c2cnc(-c3ccc(C(C)N4CC(C(=O)O)C4)cc3)s2)cc1 (stereo not shown) [Example 8, 1-(1-(4-(5-(4-isopropoxyphenyl)thiazol-2-yl)phenyl)ethyl)azetidine-3-carboxylic acid] |
| ≤ 10 nM | ≤ 50 | < 20 | 20 to 50 | CC(C)Oc1ccc(-c2cnc(-c3ccc(CN4CC(C(=O)O)C4)cc3Cl)s2)cc1 [Example 12, 1-(3-chloro-4-(5-(4-isopropoxyphenyl)thiazol-2-yl)benzyl)azetidine-3-carboxylic acid] |
| ≤ 100 nM | – | – | – | O=C(O)C1CN(Cc2ccc(-c3ncc(-c4ccc(OC5CC5)cc4)s3)cc2)C1 [Example 16, 1-(4-(5-(4-cyclopropoxyphenyl)thiazol-2-yl)benzyl)azetidine-3-carboxylic acid] |
| ≤ 10 nM | ≤ 50 | < 20 | 20 to 50 | Cc1cc(CN2CC(C(=O)O)C2)ccc1-c1ncc(-c2ccc(OC(C)C)cc2)s1 [Example 21, 1-(4-(5-(4-isopropoxyphenyl)thiazol-2-yl)-3-methylbenzyl)azetidine-3-carboxylic acid] |
| ≤ 10 nM | ≤ 10 | < 20 | < 20 | CC(C)Oc1ccc(-c2cnc(-c3ccc(CN4CC(C(=O)O)C4)c(F)c3)s2)cc1 [Example 22, 1-(2-fluoro-4-(5-(4-isopropoxyphenyl)thiazol-2-yl)benzyl)azetidine-3-carboxylic acid] |
| ≤ 10 nM | ≤ 50 | < 20 | < 20 | CC(C)Oc1ccc(-c2cnc(-c3ccc(CN4CC(C(=O)O)C4)c(Cl)c3)s2)cc1 [Example 23, 1-(2-chloro-4-(5-(4-isopropoxyphenyl)thiazol-2-yl)benzyl)azetidine-3-carboxylic acid] |
| ≤ 10 nM | – | – | – | Cc1cc(-c2ncc(-c3ccc(OC(C)C)cc3)s2)ccc1CN1CC(C(=O)O)C1 [Example 25, 1-(4-(5-(4-isopropoxyphenyl)thiazol-2-yl)-2-methylbenzyl)azetidine-3-carboxylic acid] |
| ≤ 100 nM | – | – | – | CC(C)(C)c1ccc(-c2cnc(-c3ccc(CN4CC(C(=O)O)C4)cc3)s2)cc1 [Example 33, 1-(4-(5-(4-tert-butylphenyl)thiazol-2-yl)benzyl)azetidine-3-carboxylic acid] |
| ≤ 500 nM | – | – | – | CCCCCCc1ccc(-c2cnc(-c3ccc(CN4CC(C(=O)O)C4)cc3)s2)cc1 [Example 35, 1-(4-(5-(4-hexylphenyl)thiazol-2-yl)benzyl)azetidine-3-carboxylic acid] |
| ≤ 500 nM | – | – | – | CCCCCOc1ccc(-c2cnc(-c3ccc(CN4CC(C(=O)O)C4)cc3)s2)cc1 [Example 40, 1-(4-(5-(4-pentyloxyphenyl)thiazol-2-yl)benzyl)azetidine-3-carboxylic acid] |
| ≤ 100 nM | – | – | – | O=C(O)C1CN(Cc2ccc(-c3ncc(-c4ccc(OC5CCCC5)cc4)s3)cc2)C1 [Example 41, 1-(4-(5-(4-(cyclopentyloxy)phenyl)thiazol-2-yl)benzyl)azetidine-3-carboxylic acid] |
| ≤ 100 nM | – | – | – | O=C(O)C1CN(Cc2ccc(-c3ncc(-c4ccc(OC5CCCCC5)cc4)s3)cc2)C1 [Example 43, 1-(4-(5-(4-(cyclohexyloxy)phenyl)thiazol-2-yl)benzyl)azetidine-3-carboxylic acid] |
| ≤ 100 nM | – | – | – | CCCCCc1ccc(-c2cnc(-c3ccc(CN4CC(C(=O)O)C4)cc3)s2)cc1 [Example 49, 1-(4-(5-(4-pentylphenyl)thiazol-2-yl)benzyl)azetidine-3-carboxylic acid] |
| ≤ 100 nM | – | – | – | Cc1cc(OC(C)C)ccc1-c1cnc(-c2ccc(CN3CC(C(=O)O)C3)cc2)s1 [Example 54, 1-(4-(5-(4-isopropoxy-2-methylphenyl)thiazol-2-yl)benzyl)azetidine-3-carboxylic acid] |
